Experimental findings from ChEMBL document CHEMBL5241134, “Discovery of orally bioavailable inhibitors of MALT1 with in vivo activity for psoriasis” (Bioorg Med Chem Lett, 2023) are described below.

Molecules are shown by their SMILES.

The nature of series [1]: Inhibition of IL-2 production in PMA/ionomycin stimulated human Jurkat T cells. The class given is functional, cell-based.
Series [2] deals with T1, Mucosa-associated lymphoid tissue lymphoma translocation protein 1 (Homo sapiens, UniProt Q9UDY8).
T1 sequence (Q9UDY8 whole entry): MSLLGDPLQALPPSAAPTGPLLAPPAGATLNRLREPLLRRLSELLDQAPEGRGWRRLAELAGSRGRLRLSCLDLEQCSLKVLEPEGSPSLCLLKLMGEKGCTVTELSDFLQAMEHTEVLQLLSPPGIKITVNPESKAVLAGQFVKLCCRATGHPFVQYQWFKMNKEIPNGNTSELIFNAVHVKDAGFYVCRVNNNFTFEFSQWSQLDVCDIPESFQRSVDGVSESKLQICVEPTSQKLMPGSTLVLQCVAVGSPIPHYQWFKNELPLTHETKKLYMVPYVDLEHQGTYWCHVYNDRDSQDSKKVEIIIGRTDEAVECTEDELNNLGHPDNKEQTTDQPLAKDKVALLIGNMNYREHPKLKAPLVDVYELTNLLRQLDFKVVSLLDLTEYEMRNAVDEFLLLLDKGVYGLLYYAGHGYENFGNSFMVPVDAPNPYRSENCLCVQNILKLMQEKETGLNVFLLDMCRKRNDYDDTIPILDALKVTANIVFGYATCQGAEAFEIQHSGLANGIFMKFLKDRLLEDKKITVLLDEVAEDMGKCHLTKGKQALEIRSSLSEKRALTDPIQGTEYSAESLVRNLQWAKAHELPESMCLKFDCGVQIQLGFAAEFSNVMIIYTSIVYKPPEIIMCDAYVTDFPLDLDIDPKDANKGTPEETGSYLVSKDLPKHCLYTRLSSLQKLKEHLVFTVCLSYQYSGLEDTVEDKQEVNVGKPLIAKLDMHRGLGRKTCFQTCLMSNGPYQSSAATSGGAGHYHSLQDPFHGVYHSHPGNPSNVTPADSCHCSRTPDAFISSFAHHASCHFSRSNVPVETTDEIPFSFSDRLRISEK
Briefly: Inhibition of MALT1 (unknown origin).

Series [3] can be described thus: Apparent permeability of the compound in human Caco-2 cells. Type of series: ADME, cell-based. In general terms: Caco-2 cells form a polarised layer with tight junctions and transporters.
The nature of series [4]: Drug concentration in BALB/cAnNCrlCr mouse at 1 mg/kg, iv administered as single dose. The class given is ADME, organism-based. As to conditions: in vivo.
Series [5] is described as follows: AUC (0 to infinity) in BALB/cAnNCrlCr mouse at 1 mg/kg, iv administered as single dose. Type of series: ADME, organism-based. Also noted: dose 1 mg/kg, route iv. To be noted: in vivo.
A short description of series [6]: Half-life in BALB/cAnNCrlCr mouse at 1 mg/kg, iv administered as single dose. Type of series: ADME, organism-based. To be noted: in vivo.
The nature of series [7]: Total clearance in BALB/cAnNCrlCr mouse at 1 mg/kg, iv administered as single dose. Type of series: ADME, organism-based. As to conditions: in vivo.
A short description of series [8]: Cmax in BALB/cAnNCrlCr mouse at 2 mg/kg, po administered as single dose. Type of series: ADME, organism-based. The arrangement: dose 2 mg/kg, route po. To be noted: in vivo.
The nature of series [9]: AUC (0 to infinity) in BALB/cAnNCrlCr mouse at 2 mg/kg, po administered as single dose. The class given is ADME, organism-based. Also noted: dose 2 mg/kg, route po. To be noted: in vivo.
Series [10] is described as follows: Half-life in BALB/cAnNCrlCr mouse at 2 mg/kg, po administered as single dose. Type of series: ADME, organism-based. As to conditions: in vivo.
The nature of series [11]: Tmax in BALB/cAnNCrlCr mouse at 2 mg/kg, po administered as single dose. The class given is ADME, organism-based. To be noted: in vivo.
Series [12] can be described thus: Oral bioavailability in BALB/cAnNCrlCr mouse at 2 mg/kg administered as single dose. Type of series: ADME, organism-based. As to conditions: in vivo.

In the case of `N/C(=N\S(=O)(=O)c1cccs1)NCc1cc(-c2ccc(Cl)cc2)n(-c2ccc(Cl)cc2)n1`, the results for the IC50 in series [1] and in series [2] were 1.29 µM and 0.249 µM, respectively.
For `COc1cccc(S(=O)(=O)/N=C(\N)NCc2cc(-c3ccc(Cl)cc3)n(-c3ccc(Cl)cc3)n2)c1`, in that order: 2.06 µM and 0.06 µM.
Turning to `CC(C)[C@H](N)C(=O)NCc1cc(-c2ccc(Cl)cc2)n(-c2ccc(Cl)cc2)n1`, inhibition in series [2] was half-maximal at 1.85 µM (IC50).
Take `N/C(=N\S(=O)(=O)c1ccccc1)NCc1cc(-c2ccc(Cl)cc2)n(-c2ccc(Cl)cc2)n1`: the IC50 (usually the midpoint of a concentration-inhibition curve) in [1] worked out at 1.4 µM; in series [2] it was 0.093 µM. Also, in [3], the Papp (commonly a coefficient for how fast a substance crosses the barrier) was 30 nm/s. In addition, the Drug uptake in series [4] was 1920 ng/mL. Besides, the AUC(0-inf) (commonly the area under the concentration-time curve extrapolated to infinity) in series [5] is 5.57 µg·h/mL; in [9] it was 4.45 µg·h/mL. Besides, the half-life – broadly, how long it takes for the measured level to halve – in series [6] is 3.37 h; in series [10], 4.82 h. Further, the clearance – broadly, the volume of plasma or blood freed of the substance per unit of time – in series [7] was 0.18 L/h/kg. In addition, in [8], the Cmax – broadly, the maximum level reached in the sampled fluid or tissue – turned out to be 0.56 µg/mL. Moreover, the Tmax (commonly the time from dosing to the highest level) in [11] turned out to be 2 h. Also, the bioavailability – broadly, dose-corrected exposure relative to a reference, in per cent – in series [12] turned out to be 39.9%.
`N[C@@H](C(=O)NCc1cc(-c2ccc(Cl)cc2)n(-c2ccc(Cl)cc2)n1)c1ccccc1`: it took 0.368 µM to reach half-maximal inhibition in [2] (IC50).
Same read-out and setting: as for `CC(=O)NCc1cc(-c2ccc(Cl)cc2)n(-c2ccc(Cl)cc2)n1`, the figure is 1.77 µM.
On the same count and under the same terms, for `N[C@@H](Cc1ccccc1)C(=O)NCc1cc(-c2ccc(Cl)cc2)n(-c2ccc(Cl)cc2)n1` the value was 0.28 µM; for `CS(=O)(=O)/N=C(/NCc1cc(-c2ccc(Cl)cc2)n(-c2ccc(Cl)cc2)n1)NCc1cccs1`, 0.026 µM.
Still for that read-out and setting: for `N#C/N=C(\N)NCc1cc(-c2ccc(Cl)cc2)n(-c2ccc(Cl)cc2)n1` the value was 1.59 µM.
Consider `CCN/C(=N\S(C)(=O)=O)NCc1cc(-c2ccc(Cl)cc2)n(-c2ccc(Cl)cc2)n1`, for which half-maximal inhibition in series [2] (IC50) was put at 0.848 µM.
In series [2], `CS(=O)(=O)/N=C(\NCc1cccc(Cl)c1)NCc1cc(-c2ccc(Cl)cc2)n(-c2ccc(Cl)cc2)n1` returned an IC50 of 0.02 µM.
The same measure, in the same setting: as for `O=C(NCc1cc(-c2ccc(Cl)cc2)n(-c2ccc(Cl)cc2)n1)C(O)c1ccccc1` (configuration not stated), the figure is 0.159 µM; as for `NC(C(=O)NCc1cc(-c2ccc(Cl)cc2)n(-c2ccc(Cl)cc2)n1)c1ccccn1` (configuration not stated), 0.227 µM.
Still for that read-out and setting: as for `O=C(NCc1cc(-c2ccc(Cl)cc2)n(-c2ccc(Cl)cc2)n1)c1ccccc1`, the figure is more than 25 µM; as for `CS(=O)(=O)/N=C(/NCc1cc(-c2ccc(Cl)cc2)n(-c2ccc(Cl)cc2)n1)N[C@H](CO)c1ccccc1`, 0.045 µM.
Turning to `CS(=O)(=O)/N=C(\NCc1ccccc1)NCc1cc(-c2ccc(Cl)cc2)n(-c2ccc(Cl)cc2)n1`, the concentration for half-maximal inhibition (IC50) was 1.09 µM in series [1] and 0.031 µM in series [2].
For the compound `N/C(=N\S(=O)(=O)C1CC1)NCc1cc(-c2ccc(Cl)cc2)n(-c2ccc(Cl)cc2)n1`, the IC50 in series [2] was determined as 0.258 µM.
The same measure, in the same setting: for `Cn1ccc(S(=O)(=O)/N=C(\N)NCc2cc(-c3ccc(Cl)cc3)n(-c3ccc(Cl)cc3)n2)n1` the value was 0.51 µM.
For the compound `N/C(=N\S(=O)(=O)c1cccc(F)c1)NCc1cc(-c2ccc(Cl)cc2)n(-c2ccc(Cl)cc2)n1`, the IC50 in series [1] was found to be 1.35 µM; in series [2], 0.056 µM.
For `CN(C)[C@H](C(=O)NCc1cc(-c2ccc(Cl)cc2)n(-c2ccc(Cl)cc2)n1)c1ccccc1`, in that order: 1.73 µM and 0.053 µM.
On to `N/C(=N\S(=O)(=O)Cc1ccccc1)NCc1cc(-c2ccc(Cl)cc2)n(-c2ccc(Cl)cc2)n1`, for which half-maximal inhibition in [2] (IC50) required 0.774 µM.
Still for that read-out and setting: for `O=C(NCCc1ccccc1)c1cc(-c2ccc(Cl)cc2)n(-c2ccc(Cl)cc2)n1` the value was more than 25 µM; for `CN(C)[C@@H](CO)CNC(=O)c1cc(-c2ccc(Cl)cc2)n(-c2ccc(Cl)cc2)n1`, 0.69 µM.
`NC(=O)/N=C(\N)NCc1cc(-c2ccc(Cl)cc2)n(-c2ccc(Cl)cc2)n1` returned a half-inhibitory concentration (IC50) in [2] of 1.11 µM.
For the compound `CC(=O)N[C@H](C(=O)NCc1cc(-c2ccc(Cl)cc2)n(-c2ccc(Cl)cc2)n1)c1ccccc1`, the figures for the IC50 in series [1] and in [2] were 5.02 µM and 0.042 µM, respectively.
The compound `O=C(Cc1ccccc1)NCc1cc(-c2ccc(Cl)cc2)n(-c2ccc(Cl)cc2)n1` registered an IC50 in [2] of 0.188 µM.
The compound `N/C(=N\S(=O)(=O)C1CCCCC1)NCc1cc(-c2ccc(Cl)cc2)n(-c2ccc(Cl)cc2)n1` came in with an IC50 in series [2] of 0.762 µM.
Turning to `CS(=O)(=O)N[C@H](C(=O)NCc1cc(-c2ccc(Cl)cc2)n(-c2ccc(Cl)cc2)n1)c1ccccc1`, the results for the IC50 in [1] and in series [2] were more than 10 µM and 0.06 µM, respectively.
On to `O=C(CCc1ccccc1)NCc1cc(-c2ccc(Cl)cc2)n(-c2ccc(Cl)cc2)n1`, for which, in series [2], inhibition was half-maximal at 0.262 µM (IC50).
The same measure, in the same setting: as for `N/C(=N\S(=O)(=O)c1ccncc1)NCc1cc(-c2ccc(Cl)cc2)n(-c2ccc(Cl)cc2)n1`, the figure is 0.562 µM; as for `CS(=O)(=O)NCc1cc(-c2ccc(Cl)cc2)n(-c2ccc(Cl)cc2)n1`, 2.19 µM; as for `CC(=O)/N=C(\N)NCc1cc(-c2ccc(Cl)cc2)n(-c2ccc(Cl)cc2)n1`, 1.54 µM.
Consider `CC(=O)NC(C(=O)NCc1cc(-c2ccc(Cl)cc2)n(-c2ccc(Cl)cc2)n1)c1ccccn1` (configuration not stated), for which the figures for the IC50 in [1] and in [2] were 4.17 µM and 0.056 µM, respectively.
In series [2], `CC(=O)N[C@H](C(=O)NCc1cc(-c2ccc(Cl)cc2)n(-c2ccc(Cl)cc2)n1)C(C)C` yielded a 50% inhibitory concentration (IC50) of 2.06 µM.
The same measure, in the same setting: for `CS(=O)(=O)/N=C(\NCc1ccccn1)NCc1cc(-c2ccc(Cl)cc2)n(-c2ccc(Cl)cc2)n1` the value was 0.034 µM.
As for `CS(=O)(=O)/N=C(/NCc1cc(-c2ccc(Cl)cc2)n(-c2ccc(Cl)cc2)n1)NCC1CC1`, the half-inhibitory concentration (IC50) was 1.64 µM in [1] and 0.053 µM in series [2].
`CN(C)[C@@H](CO)C(=O)NCc1cc(-c2ccc(Cl)cc2)n(-c2ccc(Cl)cc2)n1` displayed an IC50 in series [2] of 4.02 µM.
Still for that read-out and setting: for `CN(C)CC(=O)NCc1cc(-c2ccc(Cl)cc2)n(-c2ccc(Cl)cc2)n1` the value was 3.88 µM.
The same measure, in the same setting: for `CS(=O)(=O)/N=C(\N)NCc1cc(-c2ccc(Cl)cc2)n(-c2ccc(Cl)cc2)n1` the value was 0.401 µM.
With `N[C@H](C(=O)NCc1cc(-c2ccc(Cl)cc2)n(-c2ccc(Cl)cc2)n1)c1ccccc1`, the values for the IC50 in series [1] and in [2] were 2.66 µM and 0.053 µM, respectively.
In [2], `NC(=O)NCc1cc(-c2ccc(Cl)cc2)n(-c2ccc(Cl)cc2)n1` registered a half-maximal inhibitory concentration (IC50) of 1.43 µM.
